Experimental data: US20240208992A1, “MACROCYCLES AS CFTR MODULATORS” (Idorsia Pharmaceuticals Ltd, priority 2021, published 2024)

Target: human F508del-CFTR (Homo sapiens, UniProt P13569, DEL508-508)
Assay: F508del-CFTR cell surface expression (corrector activity), DiscoveRx ß-galactosidase complementation chemiluminescence assay in recombinant U2OS cell line;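 also: U2OS cells co-expressing ProLink-tagged F508del-CFTR and a membrane-anchored enzyme acceptor, where more surface CFTR restores β-galactosidase activity measured by chemiluminescence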
Conditions: U2OS cell line, 16h compound incubation; for EC50: EC50, F508del-CFTR cell surface expression, geomean values; for Emax: U2OS, in relation to the Emax of the corrector lumacaftor (=100%), arithmetic mean values

Sequence of human F508del-CFTR (P13569 with tags, fused parts or gaps DEL508-508): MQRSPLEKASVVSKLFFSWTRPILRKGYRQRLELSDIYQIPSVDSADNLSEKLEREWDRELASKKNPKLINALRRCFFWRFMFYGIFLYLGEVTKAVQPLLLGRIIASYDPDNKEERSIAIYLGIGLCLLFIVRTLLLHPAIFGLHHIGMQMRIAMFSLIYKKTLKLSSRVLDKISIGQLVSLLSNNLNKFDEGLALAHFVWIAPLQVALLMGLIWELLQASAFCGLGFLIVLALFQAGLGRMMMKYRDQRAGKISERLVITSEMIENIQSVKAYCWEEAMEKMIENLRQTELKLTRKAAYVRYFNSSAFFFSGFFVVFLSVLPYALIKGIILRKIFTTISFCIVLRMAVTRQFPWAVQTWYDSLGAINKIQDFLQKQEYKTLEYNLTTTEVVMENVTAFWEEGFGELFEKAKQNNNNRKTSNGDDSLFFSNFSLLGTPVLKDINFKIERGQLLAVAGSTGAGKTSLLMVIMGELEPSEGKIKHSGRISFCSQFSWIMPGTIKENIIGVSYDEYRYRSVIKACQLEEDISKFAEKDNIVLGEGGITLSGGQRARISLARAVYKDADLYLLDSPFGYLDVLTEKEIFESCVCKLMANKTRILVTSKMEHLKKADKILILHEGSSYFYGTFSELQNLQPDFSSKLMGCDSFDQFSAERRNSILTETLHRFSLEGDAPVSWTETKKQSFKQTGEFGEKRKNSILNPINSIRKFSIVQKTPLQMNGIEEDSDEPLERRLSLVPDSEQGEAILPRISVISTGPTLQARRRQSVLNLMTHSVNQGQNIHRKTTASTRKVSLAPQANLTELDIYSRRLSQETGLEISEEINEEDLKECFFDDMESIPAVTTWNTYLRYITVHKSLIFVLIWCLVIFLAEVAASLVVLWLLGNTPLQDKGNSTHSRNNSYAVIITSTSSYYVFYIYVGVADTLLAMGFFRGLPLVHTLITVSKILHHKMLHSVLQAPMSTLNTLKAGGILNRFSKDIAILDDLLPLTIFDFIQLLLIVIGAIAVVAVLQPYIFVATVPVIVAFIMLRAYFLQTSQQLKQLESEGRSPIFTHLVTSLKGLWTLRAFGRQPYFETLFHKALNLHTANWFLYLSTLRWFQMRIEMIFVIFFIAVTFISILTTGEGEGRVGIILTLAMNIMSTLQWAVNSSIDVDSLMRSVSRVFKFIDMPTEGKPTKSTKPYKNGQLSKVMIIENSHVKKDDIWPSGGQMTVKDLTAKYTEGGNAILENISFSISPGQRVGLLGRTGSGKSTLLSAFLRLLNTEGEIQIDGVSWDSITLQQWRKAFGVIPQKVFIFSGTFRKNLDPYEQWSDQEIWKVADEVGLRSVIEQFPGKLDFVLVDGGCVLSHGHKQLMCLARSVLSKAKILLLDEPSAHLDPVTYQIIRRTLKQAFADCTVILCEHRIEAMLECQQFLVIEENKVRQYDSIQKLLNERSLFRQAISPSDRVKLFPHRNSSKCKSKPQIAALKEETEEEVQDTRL

| Compound | EC50 [nM] | Emax [%] |
| --- | --- | --- |
| CC(C)C[C@H]1C(=O)N2CCOC[C@@H]2C(=O)N[C@H](Cc2ccccc2)COc2ccc3ccccc3c2C(=O)N[C@H](C(=O)NCCc2cccc(OC(F)F)c2)CC(=O)N1C [Example 371, (4aR,7R,18S,22S)-7-benzyl-N-(3-(difluoromethoxy)phenethyl)-22-isobutyl-21-methyl-5,16,20,23-tetraoxo-1,2,4,4a,5,6,7,8,16,17,18,19,20,21,22,23-hexadecahydronaphtho[1,2-p][1,4]oxazino[3,4-f][1]oxa[4,7,10,14]tetraazacycloheptadecine-18-carboxamide] | 226 | 180 |
| COc1cccc(CCNC(=O)[C@@H]2CC(=O)N(C)[C@@H](CC(C)C)C(=O)N3CCN(CC(C)C)C[C@@H]3C(=O)N[C@H](Cc3ccccc3)COc3cnc4ccccc4c3C(=O)N2)c1 [Example 372, (9S,13S,19aR,22R)-22-benzyl-13,18-diisobutyl-N-(3-methoxyphenethyl)-12-methyl-7,11,14,20-tetraoxo-7,8,9,10,11,12,13,14,17,18,19,19a,20,21,22,23-hexadecahydro-16H-pyrazino[2′,11:6,7][1]oxa[4,7,10,14]tetraazacycloheptadecino[17,16-c]quinoline-9-carboxamide] | 72 | 360 |
| COc1cccc(CCNC(=O)[C@@H]2CC(=O)N(C)[C@@H](CC(C)C)C(=O)N3CCN(CC(C)C)C[C@H]3C(=O)N[C@H](Cc3ccccc3)COc3cnc4ccccc4c3C(=O)N2)c1 [Example 373, (9S,13S,19aS,22R)-22-benzyl-13,18-diisobutyl-N-(3-methoxyphenethyl)-12-methyl-7,11,14,20-tetraoxo-7,8,9,10,11,12,13,14,17,18,19,19a,20,21,22,23-hexadecahydro-16H-pyrazino[2′,11:6,7][1]oxa[4,7,10,14]tetraazacycloheptadecino[17,16-c]quinoline-9-carboxamide] | 200 | 149 |
| COc1cccc(CCNC(=O)[C@@H]2CC(=O)N(C)[C@@H](CC(C)C)C(=O)N3CCN(C(C)C)C[C@@H]3C(=O)N[C@H](Cc3ccccc3)COc3cnc4ccccc4c3C(=O)N2)c1 [Example 374, (9S,13S,19aR,22R)-22-benzyl-13-isobutyl-18-isopropyl-N-(3-methoxyphenethyl)-12-methyl-7,11,14,20-tetraoxo-7,8,9,10,11,12,13,14,17,18,19,19a,20,21,22,23-hexadecahydro-16H-pyrazino[2′,1′:6,7][1]oxa[4,7,10,14]tetraazacycloheptadecino[17,16-c]quinoline-9-carboxamide] | 102 | 333 |
| Cc1cc(CCNC(=O)[C@@H]2CC(=O)N(C)[C@@H](CC(C)C)C(=O)N3CCN(C(C)C)C[C@@H]3C(=O)N[C@H](Cc3ccccc3)COc3cnc4ccccc4c3C(=O)N2)on1 [Example 375, (9S,13S,19aR,22R)-22-benzyl-13-isobutyl-18-isopropyl-12-methyl-N-(2-(3-methylisoxazol-5-yl)ethyl)-7,11,14,20-tetraoxo-7,8,9,10,11,12,13,14,17,18,19,19a,20,21,22,23-hexadecahydro-16H-pyrazino[2′,1′:6,7][1]oxa[4,7,10,14]tetraazacycloheptadecino[17,16-c]quinoline-9-carboxamide] | 461 | 316 |
| COc1cccc(CCNC(=O)[C@@H]2CC(=O)N(C)[C@@H](CC(C)C)C(=O)N3CC=CC[C@@H]3C(=O)N[C@H](Cc3ccccc3)COc3ccc4ccccc4c3C(=O)N2)c1 [Example 376, (4aR,7R,18S,22S)-7-benzyl-22-isobutyl-N-(3-methoxyphenethyl)-21-methyl-5,16,20,23-tetraoxo-4,4a,5,6,7,8,16,17,18,19,20,21,22,23-tetradecahydro-1H-naphtho[1,2-p]pyrido[2,1-f][1]oxa[4,7,10,14]tetraazacycloheptadecine-18-carboxamide] | 156 | 284 |
| COc1cc(CCNC(=O)[C@@H]2CC(=O)N(C)[C@@H](CC(C)C)C(=O)N3CCCC[C@@H]3C(=O)N[C@H](Cc3ccccc3)COc3ccc4nc(C)n(C)c4c3C(=O)N2)cc(OC)c1 [Example 377, (8S,12S,18aR,21R)-21-benzyl-N-(3,5-dimethoxyphenethyl)-12-isobutyl-4,5,11-trimethyl-6,10,13,19-tetraoxo-6,7,8,9,10,11,12,13,16,17,18,18a,19,20,21,22-hexadecahydro-5H,15H-imidazo[4′,5′:5,6]benzo[1,2-p]pyrido[2,1-f][1]oxa[4,7,10,14]tetraazacycloheptadecine-8-carboxamide] | 704 | 111 |
| CC(C)C[C@H]1C(=O)N2CCOC[C@@H]2C(=O)N[C@H](Cc2ccccc2)COc2ccc3ccccc3c2C(=O)N[C@H](C(=O)NCCc2cccc(Br)c2)CC(=O)N1C [Example 378, (4aR,7R,18S,22S)-7-benzyl-N-(3-bromophenethyl)-22-isobutyl-21-methyl-5,16,20,23-tetraoxo-1,2,4,4a,5,6,7,8,16,17,18,19,20,21,22,23-hexadecahydronaphtho[1,2-p][1,4]oxazino[3,4-f][1]oxa[4,7,10,14]tetraazacycloheptadecine-18-carboxamide] | 45 | 138 |
| Cc1nc2ccc3c(c2o1)C(=O)N[C@H](C(=O)NCCc1ccc2c(c1)OCO2)CC(=O)N(C)[C@@H](CC(C)C)C(=O)N(CCC1CCCCC1)CC(=O)N[C@H](Cc1ccccc1)CO3 [Example 379, (8R,14S,18S)-N-(2-(benzo[d][1,3]dioxol-5-yl)ethyl)-8-benzyl-12-(2-cyclohexylethyl)-14-isobutyl-2,15-dimethyl-10,13,16,20-tetraoxo-7,8,9,10,11,12,13,14,15,16,17,18,19,20-tetradecahydrooxazolo[4′,5′:5,6]benzo[1,2-p][1]oxa[4,7,10,14]tetraazacycloheptadecine-18-carboxamide] | 76 | 312 |
| COc1cccc(CCNC(=O)[C@@H]2CC(=O)N(C)[C@@H](CC(C)C)C(=O)N(CCC3CCCCC3)CC(=O)N[C@H](Cc3ccccc3)COc3ccc4nc(C)oc4c3C(=O)N2)c1 [Example 380, (8R,14S,18S)-8-benzyl-12-(2-cyclohexylethyl)-14-isobutyl-N-(3-methoxyphenethyl)-2,15-dimethyl-10,13,16,20-tetraoxo-7,8,9,10,11,12,13,14,15,16,17,18,19,20-tetradecahydrooxazolo[4′,5′:5,6]benzo[1,2-p][1]oxa[4,7,10,14]tetraazacycloheptadecine-18-carboxamide] | 65 | 325 |
| [2H]C([2H])([2H])Oc1cccc(CCNC(=O)[C@@H]2CC(=O)N(C)[C@@H](CC(C)C)C(=O)N(CCC3CCCCC3)CC(=O)N[C@H](Cc3ccccc3)COc3ccc4nc(C)oc4c3C(=O)N2)c1 [Example 381, (8R,14S,18S)-8-benzyl-12-(2-cyclohexylethyl)-14-isobutyl-N-(3-(methoxy-d3)phenethyl)-2,15-dimethyl-10,13,16,20-tetraoxo-7,8,9,10,11,12,13,14,15,16,17,18,19,20-tetradecahydrooxazolo[4′,5′:5,6]benzo[1,2-p][1]oxa[4,7,10,14]tetraazacycloheptadecine-18-carboxamide] | 68 | 322 |
| CC(C)C[C@H]1C(=O)N(CCC2CCCCC2)CC(=O)N[C@H](Cc2ccccc2)COc2cnc3c(F)cccc3c2C(=O)N[C@H](C(=O)NCCc2ccc3c(c2)OCO3)CC(=O)N1C [Example 382, (3S,7S,13R)-N-(2-(benzo[d][1,3]dioxol-5-yl)ethyl)-13-benzyl-9-(2-cyclohexylethyl)-18-fluoro-7-isobutyl-6-methyl-1,5,8,11-tetraoxo-1,2,3,4,5,6,7,8,9,10,11,12,13,14-tetradecahydro-[1]oxa[4,7,10,14]tetraazacycloheptadecino[17,16-c]quinoline-3-carboxamide] | 44 | 264 |
| COc1cccc(CCNC(=O)[C@@H]2CC(=O)N(C)[C@@H](CC(C)C)C(=O)N(CCC3CCCCC3)CC(=O)N[C@H](Cc3ccccc3)COc3cnc4c(F)cccc4c3C(=O)N2)c1 [Example 383, (3S,7S,13R)-13-benzyl-9-(2-cyclohexylethyl)-18-fluoro-7-isobutyl-N-(3-methoxyphenethyl)-6-methyl-1,5,8,11-tetraoxo-1,2,3,4,5,6,7,8,9,10,11,12,13,14-tetradecahydro-[1]oxa[4,7,10,14]tetraazacycloheptadecino[17,16-c]quinoline-3-carboxamide] | 65 | 317 |
| [2H]C([2H])([2H])Oc1cccc(CCNC(=O)[C@@H]2CC(=O)N(C)[C@@H](CC(C)C)C(=O)N(CCC3CCCCC3)CC(=O)N[C@H](Cc3ccccc3)COc3cnc4c(F)cccc4c3C(=O)N2)c1 [Example 384, (3S,7S,13R)-13-benzyl-9-(2-cyclohexylethyl)-18-fluoro-7-isobutyl-N-(3-(methoxy-d3)phenethyl)-6-methyl-1,5,8,11-tetraoxo-1,2,3,4,5,6,7,8,9,10,11,12,13,14-tetradecahydro-[1]oxa[4,7,10,14]tetraazacycloheptadecino[17,16-c]quinoline-3-carboxamide] | 54 | 282 |
| COc1cccc(CCNC(=O)[C@@H]2CC(=O)N(C)[C@@H](CC(C)C)C(=O)N(C)C3(CC3)C(=O)N[C@H](Cc3ccccc3)COc3ccc4ccccc4c3C(=O)N2)c1 [Example 385, (3′S,7′S,13′R)-13′-benzyl-7′-isobutyl-N-(3-methoxyphenethyl)-6′,9′-dimethyl-1′,5′,8′,11′-tetraoxo-2′,3′,4′,5′,6′,7′,8′,9′,11′,12′,13′,14′-dodecahydro-1′H-spiro[cyclopropane-1,10′-naphtho[1,2-p][1]oxa[4,7,10,14]tetraazacycloheptadecine]-3′-carboxamide] | 191 | 326 |
